The values below come from ChEMBL document CHEMBL1201862, “PubChem BioAssay data set” (2004).

Assay [1] deals with Vero. The experiment in a line: Vero cell cytotoxicity, cytotoxicity control for flavivirus capping enzyme inhibitors (AID 588742). As to conditions: Chlorocebus sabaeus. In kind it is functional.
Assay [2] concerns the target T1, Protein RecA (Mycobacterium tuberculosis, UniProt P9WHJ3).
T1 sequence (P9WHJ3 whole entry): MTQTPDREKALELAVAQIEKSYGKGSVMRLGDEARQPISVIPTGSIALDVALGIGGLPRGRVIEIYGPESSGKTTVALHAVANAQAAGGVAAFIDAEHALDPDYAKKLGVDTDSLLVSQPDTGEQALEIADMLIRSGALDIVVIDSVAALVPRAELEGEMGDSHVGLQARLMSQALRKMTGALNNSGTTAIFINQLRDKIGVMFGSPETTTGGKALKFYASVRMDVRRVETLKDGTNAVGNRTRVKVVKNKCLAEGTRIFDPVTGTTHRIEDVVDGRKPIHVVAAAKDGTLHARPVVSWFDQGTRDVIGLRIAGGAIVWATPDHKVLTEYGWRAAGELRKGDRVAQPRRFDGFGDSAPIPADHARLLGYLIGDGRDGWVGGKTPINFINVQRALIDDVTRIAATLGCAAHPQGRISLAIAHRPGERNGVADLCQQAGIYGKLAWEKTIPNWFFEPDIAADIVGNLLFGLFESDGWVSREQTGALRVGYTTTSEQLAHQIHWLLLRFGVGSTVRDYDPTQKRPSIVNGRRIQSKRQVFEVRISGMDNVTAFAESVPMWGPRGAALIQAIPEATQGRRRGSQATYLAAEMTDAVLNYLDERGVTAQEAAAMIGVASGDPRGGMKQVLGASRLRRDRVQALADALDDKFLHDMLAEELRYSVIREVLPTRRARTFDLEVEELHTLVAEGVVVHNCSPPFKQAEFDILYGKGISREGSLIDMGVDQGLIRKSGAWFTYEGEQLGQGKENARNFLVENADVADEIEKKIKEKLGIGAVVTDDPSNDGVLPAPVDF
The experiment in a line: Fluorescence Cell-Free Homogeneous Dose Retest to Identify Inhibitors of RecA-Intein Splicing Activity. [Related pubchem assays (depositor defined):AID2097, AID2223, AID489010, AID492950]. It is filed as functional.

Assay [3] in a line: cytotoxicity in COV362 ovarian cancer cells, dose response, cytotoxicity control for PAX8 inhibitor project, cell-based, plate reader, dry powder, SA12 (AID 743144). In kind it is functional.
Assay [4] is described as follows: THP-1 cell cytotoxicity, dose response, cytotoxicity control for Vif-APOBEC3G degradation inhibitor project, THP-1 cells (AID 1117359). In kind it is functional. The following applies: Human immunodeficiency virus 1, THP-1.
Assay [5] deals with T2, Long-chain-fatty-acid--AMP ligase FadD28 (Mycobacterium tuberculosis, UniProt P9WQ59).
T2 sequence (P9WQ59 whole entry): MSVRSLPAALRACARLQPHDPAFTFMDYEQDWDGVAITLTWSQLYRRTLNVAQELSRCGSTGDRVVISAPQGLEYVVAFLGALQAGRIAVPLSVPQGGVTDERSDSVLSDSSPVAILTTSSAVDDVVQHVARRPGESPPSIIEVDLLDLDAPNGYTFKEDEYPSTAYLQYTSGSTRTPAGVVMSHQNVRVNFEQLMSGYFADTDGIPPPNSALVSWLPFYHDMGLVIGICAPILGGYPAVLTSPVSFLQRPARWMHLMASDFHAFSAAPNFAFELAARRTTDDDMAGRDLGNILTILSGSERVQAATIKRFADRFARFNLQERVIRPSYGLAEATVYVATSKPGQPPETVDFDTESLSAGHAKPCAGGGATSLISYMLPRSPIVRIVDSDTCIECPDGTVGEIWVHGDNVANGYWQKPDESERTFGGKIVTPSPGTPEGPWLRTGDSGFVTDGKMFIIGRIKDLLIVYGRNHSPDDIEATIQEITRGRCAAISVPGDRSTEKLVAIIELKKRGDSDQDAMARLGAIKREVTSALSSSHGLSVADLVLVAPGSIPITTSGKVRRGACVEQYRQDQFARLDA
In words: Fluorescence polarization aasay to screen for inhibitors that compete for the binding of FadD28 to a bisubstrate Measured in Biochemical System Using Plate Reader - 2147-01_Inhibitor_Dose_CherryPick_Activity. It is filed as functional, Mycobacterium tuberculosis H37Rv.

Assay [6] can be described thus: cytotoxicity in COV434 cells, dose response, cytotoxicity control for PAX8 inhibitor project, cell-based, plate reader, dry powder, SA7 (AID 743145). In kind it is functional.
Assay [7] deals with Genome polyprotein (dengue virus type 2, UniProt P29990). In words: Dengue-2 NS5 methyltransferase inhibitors, primary screen, biochemical, confirmation dose response (AID 588689). It is filed as functional.
Genome polyprotein, sequence (P29990 2492-3391 limits assumed): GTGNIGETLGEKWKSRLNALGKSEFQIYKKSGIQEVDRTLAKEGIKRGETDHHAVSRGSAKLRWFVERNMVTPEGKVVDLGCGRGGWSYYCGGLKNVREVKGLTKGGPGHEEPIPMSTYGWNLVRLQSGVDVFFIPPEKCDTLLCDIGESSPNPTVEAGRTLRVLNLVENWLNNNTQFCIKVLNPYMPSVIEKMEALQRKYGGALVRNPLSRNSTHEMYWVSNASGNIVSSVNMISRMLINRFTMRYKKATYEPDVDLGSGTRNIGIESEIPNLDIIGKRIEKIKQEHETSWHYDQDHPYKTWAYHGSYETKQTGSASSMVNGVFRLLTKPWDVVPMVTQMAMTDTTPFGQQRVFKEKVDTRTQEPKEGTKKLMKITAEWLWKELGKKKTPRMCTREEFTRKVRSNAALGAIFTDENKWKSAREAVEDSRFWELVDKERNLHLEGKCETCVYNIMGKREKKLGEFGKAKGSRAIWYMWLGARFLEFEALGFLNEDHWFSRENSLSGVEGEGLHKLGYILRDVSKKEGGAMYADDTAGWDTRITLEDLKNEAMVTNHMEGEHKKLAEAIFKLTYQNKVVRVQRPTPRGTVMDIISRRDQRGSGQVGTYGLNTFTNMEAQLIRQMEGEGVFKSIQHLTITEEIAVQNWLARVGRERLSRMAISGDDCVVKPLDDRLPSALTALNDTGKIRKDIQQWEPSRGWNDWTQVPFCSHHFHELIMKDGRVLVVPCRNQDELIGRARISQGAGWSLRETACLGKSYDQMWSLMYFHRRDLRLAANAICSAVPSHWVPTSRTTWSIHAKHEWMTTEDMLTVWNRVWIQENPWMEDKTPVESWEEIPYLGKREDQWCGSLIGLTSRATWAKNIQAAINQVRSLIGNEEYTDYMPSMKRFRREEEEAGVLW
Assay [8] in a line: PAX2 cell-based inhibition, dose response, selectivity assay for PAX8 inhibitor project, plate reader, dry powder samples (AID 743048).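 Further: HEK293 cells carrying a WT1 promoter luciferase reporter driven by expressed Pax2; potency is for inhibition of Pax2 driven reporter signal.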 It is filed as functional.
Assay [9] in a line: cytotoxicity in OV-90 ovarian cancer cells, dose response, PAX8 inhibitor project, cell-based, plate reader, dry powder, SA8 (AID 743149). In kind it is functional.
Assay [10] can be described thus: PAX5 activity inhibitors, dose response, selectivity assay for PAX8 inhibitor project, cell-based, plate reader, dry powder samples (AID 743047).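 Further: HEK293 cells carrying a Pax5 driven CD19 promoter luciferase reporter; potency of inhibitors that lower reporter luminescence.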 In kind it is functional.
Assay [11] is described as follows: IGROV1 ovarian cancer cell cytotoxicity, dose response, PAX8 inhibitor project, plate reader, dry powder samples (AID 743043). In kind it is functional, cell-based. The following applies: IGROV-1.
Assay [12] can be described thus: Luminescence Cell-Based Dose Response HTS to Identify Activators of Luciferase Translation or Activity in H4 […] Cells. [Related pubchem assays: 1829 (Project Summary), 1814 (Primary HTS)]. It is filed as functional.
Assay [13] relates to H4. The experiment in a line: Luminescence Cell-Based Dose Response HTS to Identify Activators of 5'UTR Stem-Loop Driven Prion Protein mRNA Translation in H4 Neuroglioblastoma Cells. [Related pubchem assays: 1829 (Project Summary), 1814 (Primary HTS)]. In kind it is functional. As to conditions: Homo sapiens.
A short description of assay [14]: A2780 ovarian cancer cell cytotoxicity, dose response, cytotoxicity control, plate reader, dry powder samples (AID 743046). In kind it is functional, cell-based.
Assay [15] in a line: cytotoxicity in OVCAR4 cells, dose response, cytotoxicity control for PAX8 inhibitor project, cell-based, plate reader, dry powder, SA11 (AID 743150). In kind it is functional. As to conditions: OVCAR-4.
Assay [16] in a line: NIH:OVCAR-3 ovarian cancer cell cytotoxicity, dose response, PAX8 inhibitor project, plate reader, dry powder samples (AID 743044). In kind it is functional, cell-based.
Assay [17] deals with T3, Replicative DNA helicase DnaB (Mycobacterium tuberculosis, UniProt P9WMR3).
T3 sequence (P9WMR3 whole entry): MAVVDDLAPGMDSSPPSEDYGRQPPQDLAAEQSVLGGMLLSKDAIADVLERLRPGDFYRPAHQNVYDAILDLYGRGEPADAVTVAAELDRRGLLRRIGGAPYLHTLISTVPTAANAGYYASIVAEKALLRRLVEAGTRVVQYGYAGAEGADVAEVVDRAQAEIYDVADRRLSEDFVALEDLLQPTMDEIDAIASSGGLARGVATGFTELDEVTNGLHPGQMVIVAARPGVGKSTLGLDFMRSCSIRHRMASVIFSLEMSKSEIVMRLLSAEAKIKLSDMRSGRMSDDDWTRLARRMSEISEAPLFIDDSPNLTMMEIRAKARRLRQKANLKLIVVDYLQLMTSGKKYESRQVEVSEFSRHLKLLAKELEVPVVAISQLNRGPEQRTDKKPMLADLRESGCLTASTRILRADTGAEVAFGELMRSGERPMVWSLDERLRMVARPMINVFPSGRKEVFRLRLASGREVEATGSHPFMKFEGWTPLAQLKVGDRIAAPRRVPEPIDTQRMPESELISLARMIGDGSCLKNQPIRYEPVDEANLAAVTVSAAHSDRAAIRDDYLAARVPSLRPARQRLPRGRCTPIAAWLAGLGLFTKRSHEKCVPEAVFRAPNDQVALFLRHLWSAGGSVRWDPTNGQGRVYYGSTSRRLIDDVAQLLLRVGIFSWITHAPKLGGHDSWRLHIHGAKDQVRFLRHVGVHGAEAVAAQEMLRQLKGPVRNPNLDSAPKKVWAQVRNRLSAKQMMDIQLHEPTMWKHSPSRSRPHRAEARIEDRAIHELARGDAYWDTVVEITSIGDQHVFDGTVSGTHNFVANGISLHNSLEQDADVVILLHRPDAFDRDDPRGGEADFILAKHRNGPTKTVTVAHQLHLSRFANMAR
In words: DnaB intein splicing inhibitors, dose response, biochemical, cell-free fluorescence (AID 449749). It is filed as functional.

Assay [18] addresses Paired box protein Pax-8 (Homo sapiens, UniProt Q06710). In words: inhibitors of PAX8-driven TPO luciferase reporter, dose response, RMG-I cells, cherry-pick (AID 687027).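 Further: luciferase reporter driven by Pax8 target thyroperoxidase promoter measured by SteadyGlo luminescence.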 In kind it is functional, cell-based.
A short description of assay [19]: cytotoxicity dependent on PAX8, dose response, cell-based, plate reader, dry powder (AID 743049). It is filed as functional.
A short description of assay [20]: IOSE-T80 ovarian epithelial cell cytotoxicity, dose response, cytotoxicity control for PAX8 inhibitor project, plate reader, dry powder samples (AID 743045). It is filed as functional, cell-based.

The source made the active and inactive calls. A value given as a limit tells only on which side of the number the result lay.

Paired box protein Pax-8, sequence (Q06710 whole entry): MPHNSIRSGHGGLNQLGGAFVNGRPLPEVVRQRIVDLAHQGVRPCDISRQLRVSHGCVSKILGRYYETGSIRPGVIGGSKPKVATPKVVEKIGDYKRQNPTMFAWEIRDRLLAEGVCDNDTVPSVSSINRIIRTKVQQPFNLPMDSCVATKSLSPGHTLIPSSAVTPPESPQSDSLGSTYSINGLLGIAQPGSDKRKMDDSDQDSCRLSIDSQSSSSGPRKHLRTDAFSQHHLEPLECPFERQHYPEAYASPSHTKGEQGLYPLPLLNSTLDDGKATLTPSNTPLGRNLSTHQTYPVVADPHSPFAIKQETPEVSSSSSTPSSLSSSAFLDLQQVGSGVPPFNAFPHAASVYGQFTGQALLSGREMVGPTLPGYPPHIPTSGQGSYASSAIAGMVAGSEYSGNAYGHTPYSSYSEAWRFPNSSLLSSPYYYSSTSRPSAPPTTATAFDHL

With `O=C(O)CCCN1C(=O)/C(=C\C(Cl)=C\c2ccccc2)SC1=S`, the CC50 in assay [1] was 3.6 µM (active); in [4] it was 6.87 µM (active). For the same compound, the half-maximal effective concentration (EC50) in assay [2] is 16.3 µM (active); in assay [12] it was > 120 µM (not active); in assay [13], > 120 µM (not active). Further, the AC50 was 16 µM (active) in [3]; 29.7 µM (active) in assay [5]; 27.9 µM (active) in assay [6]; 17.8 µM (active) in assay [8]; 18.4 µM (active) in assay [9]; 13.2 µM (active) in assay [10]. Further, the AC50 in assay [11] is 9.43 µM (active); in assay [14], 66.9 µM (active); in assay [15] it was 31.8 µM (active); in assay [16], 10.2 µM (active); in assay [17] it was 9.77 µM (active); in assay [18], 2.03 µM (active). For the same compound, the values for the AC50 in assay [19] and in [20] were 16 µM (active) and 22.9 µM (active), respectively. In addition, the IC50 in assay [7] was 36.2 µM (active).
